Remaining binding data for four compounds are collected here from article PMC10004634 (PLOS ONE, 2023).

Like-named read-outs stand apart in the source and are kept apart here.

Targets include BLK (Homo sapiens, UniProt P51451); MELK (Homo sapiens, UniProt Q14680); CDKL3 (Homo sapiens, UniProt Q8IVW4); FGR (Homo sapiens, UniProt P09769).
Assay in all cases: biochemical
What all share (design): KINOMEscan scanMAX competition binding, DNA-tagged kinases, qPCR read-out, percent control at 300 nM
(Real-time PCR tracks product formation cycle by cycle.)

The target in another experiment is T1, LATS1 (Homo sapiens, UniProt O95835).
T1 sequence (O95835 1-1130): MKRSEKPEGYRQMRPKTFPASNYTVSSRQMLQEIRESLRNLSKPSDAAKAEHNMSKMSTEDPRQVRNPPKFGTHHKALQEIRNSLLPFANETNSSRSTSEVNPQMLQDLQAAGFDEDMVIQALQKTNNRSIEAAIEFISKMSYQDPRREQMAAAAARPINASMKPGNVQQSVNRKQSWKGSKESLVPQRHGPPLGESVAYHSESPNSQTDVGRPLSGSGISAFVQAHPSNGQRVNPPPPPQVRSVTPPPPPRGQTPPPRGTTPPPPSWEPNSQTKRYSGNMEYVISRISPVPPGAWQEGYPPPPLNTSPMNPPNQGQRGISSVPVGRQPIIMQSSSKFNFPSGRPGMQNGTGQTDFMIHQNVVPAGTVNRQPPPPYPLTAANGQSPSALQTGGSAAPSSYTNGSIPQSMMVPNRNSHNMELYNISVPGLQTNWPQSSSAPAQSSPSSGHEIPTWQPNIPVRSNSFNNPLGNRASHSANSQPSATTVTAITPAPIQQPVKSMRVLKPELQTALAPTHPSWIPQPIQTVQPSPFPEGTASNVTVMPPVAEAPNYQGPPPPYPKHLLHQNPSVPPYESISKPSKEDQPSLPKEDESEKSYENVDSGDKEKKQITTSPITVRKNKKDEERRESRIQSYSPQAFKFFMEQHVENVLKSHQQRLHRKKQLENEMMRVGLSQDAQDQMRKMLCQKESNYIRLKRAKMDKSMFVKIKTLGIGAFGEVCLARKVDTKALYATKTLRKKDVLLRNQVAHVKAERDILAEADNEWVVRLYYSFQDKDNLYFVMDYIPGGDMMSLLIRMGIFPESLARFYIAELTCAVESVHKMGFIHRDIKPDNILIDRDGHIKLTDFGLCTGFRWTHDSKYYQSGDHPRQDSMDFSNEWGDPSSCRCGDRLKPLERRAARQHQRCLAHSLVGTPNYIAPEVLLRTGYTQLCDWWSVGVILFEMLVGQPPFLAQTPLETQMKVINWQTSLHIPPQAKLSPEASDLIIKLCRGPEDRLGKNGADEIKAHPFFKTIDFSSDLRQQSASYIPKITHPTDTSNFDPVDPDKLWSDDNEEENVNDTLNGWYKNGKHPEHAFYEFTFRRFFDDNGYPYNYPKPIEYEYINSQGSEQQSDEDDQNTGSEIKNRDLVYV

The target in another experiment is T2, MLCK (Homo sapiens, UniProt Q32MK0).
T2 construct: gene MYLK3
T2 sequence (Q32MK0 1-819): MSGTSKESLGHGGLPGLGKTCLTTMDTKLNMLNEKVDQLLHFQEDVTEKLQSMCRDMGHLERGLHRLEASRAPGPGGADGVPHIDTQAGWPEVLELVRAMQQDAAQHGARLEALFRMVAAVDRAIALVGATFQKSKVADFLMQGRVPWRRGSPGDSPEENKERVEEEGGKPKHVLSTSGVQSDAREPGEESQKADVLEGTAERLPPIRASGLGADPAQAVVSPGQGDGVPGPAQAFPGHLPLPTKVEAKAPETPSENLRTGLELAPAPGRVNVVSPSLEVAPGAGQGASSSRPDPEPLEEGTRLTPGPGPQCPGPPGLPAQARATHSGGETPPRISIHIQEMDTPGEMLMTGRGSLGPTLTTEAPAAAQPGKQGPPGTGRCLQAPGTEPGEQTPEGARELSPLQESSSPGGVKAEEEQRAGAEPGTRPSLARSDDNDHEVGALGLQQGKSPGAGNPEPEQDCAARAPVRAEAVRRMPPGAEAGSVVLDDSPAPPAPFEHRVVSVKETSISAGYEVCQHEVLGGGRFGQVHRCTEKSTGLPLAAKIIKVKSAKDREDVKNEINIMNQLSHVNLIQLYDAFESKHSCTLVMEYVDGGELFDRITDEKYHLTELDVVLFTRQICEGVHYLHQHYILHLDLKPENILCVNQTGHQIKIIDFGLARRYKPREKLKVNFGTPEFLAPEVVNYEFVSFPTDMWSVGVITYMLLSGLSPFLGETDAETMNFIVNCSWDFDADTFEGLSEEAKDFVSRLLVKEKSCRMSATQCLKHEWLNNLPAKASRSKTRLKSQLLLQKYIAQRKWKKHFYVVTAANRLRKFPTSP

[1] abbreviates: read-out: Percent control / Tirabrutinib.
The mark [2] stands for this setting: read-out: Percent control / Acalabrutinib.
Setting [3] is: read-out: Percent control / Ibrutinib.
Where [4] appears, read: read-out: Percent control / Zanubrutinib.

Sequence of CDKL3 (Q8IVW4 whole entry): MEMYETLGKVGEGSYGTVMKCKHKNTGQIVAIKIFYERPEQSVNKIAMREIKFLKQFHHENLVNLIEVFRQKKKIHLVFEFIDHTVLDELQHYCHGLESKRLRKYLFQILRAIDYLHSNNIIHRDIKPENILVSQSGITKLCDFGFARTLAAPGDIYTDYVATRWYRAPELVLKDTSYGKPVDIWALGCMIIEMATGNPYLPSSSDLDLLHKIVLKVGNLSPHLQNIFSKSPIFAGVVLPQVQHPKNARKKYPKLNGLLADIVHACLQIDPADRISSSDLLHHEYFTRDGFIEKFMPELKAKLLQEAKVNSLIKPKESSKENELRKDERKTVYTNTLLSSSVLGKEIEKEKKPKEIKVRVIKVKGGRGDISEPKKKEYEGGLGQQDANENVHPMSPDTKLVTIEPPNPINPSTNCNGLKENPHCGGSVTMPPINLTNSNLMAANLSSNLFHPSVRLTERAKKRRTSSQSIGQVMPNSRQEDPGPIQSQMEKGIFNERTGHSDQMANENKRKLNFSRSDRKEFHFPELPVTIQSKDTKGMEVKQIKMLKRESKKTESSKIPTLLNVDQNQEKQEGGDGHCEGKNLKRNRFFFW
Sequence of BLK (P51451 whole entry): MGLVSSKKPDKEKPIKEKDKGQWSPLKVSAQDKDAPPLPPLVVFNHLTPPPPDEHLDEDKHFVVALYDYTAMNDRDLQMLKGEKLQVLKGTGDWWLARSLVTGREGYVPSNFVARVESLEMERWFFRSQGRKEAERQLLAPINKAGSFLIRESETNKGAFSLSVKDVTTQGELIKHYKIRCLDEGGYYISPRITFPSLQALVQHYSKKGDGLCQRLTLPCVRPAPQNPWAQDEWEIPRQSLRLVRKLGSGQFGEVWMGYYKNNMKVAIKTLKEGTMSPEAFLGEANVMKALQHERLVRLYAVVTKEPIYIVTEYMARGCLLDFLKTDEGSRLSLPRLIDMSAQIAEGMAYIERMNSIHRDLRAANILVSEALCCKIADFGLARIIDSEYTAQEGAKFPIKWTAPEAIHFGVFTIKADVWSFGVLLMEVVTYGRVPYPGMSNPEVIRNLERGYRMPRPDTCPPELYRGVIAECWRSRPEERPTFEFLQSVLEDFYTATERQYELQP
Sequence of MELK (Q14680 whole entry): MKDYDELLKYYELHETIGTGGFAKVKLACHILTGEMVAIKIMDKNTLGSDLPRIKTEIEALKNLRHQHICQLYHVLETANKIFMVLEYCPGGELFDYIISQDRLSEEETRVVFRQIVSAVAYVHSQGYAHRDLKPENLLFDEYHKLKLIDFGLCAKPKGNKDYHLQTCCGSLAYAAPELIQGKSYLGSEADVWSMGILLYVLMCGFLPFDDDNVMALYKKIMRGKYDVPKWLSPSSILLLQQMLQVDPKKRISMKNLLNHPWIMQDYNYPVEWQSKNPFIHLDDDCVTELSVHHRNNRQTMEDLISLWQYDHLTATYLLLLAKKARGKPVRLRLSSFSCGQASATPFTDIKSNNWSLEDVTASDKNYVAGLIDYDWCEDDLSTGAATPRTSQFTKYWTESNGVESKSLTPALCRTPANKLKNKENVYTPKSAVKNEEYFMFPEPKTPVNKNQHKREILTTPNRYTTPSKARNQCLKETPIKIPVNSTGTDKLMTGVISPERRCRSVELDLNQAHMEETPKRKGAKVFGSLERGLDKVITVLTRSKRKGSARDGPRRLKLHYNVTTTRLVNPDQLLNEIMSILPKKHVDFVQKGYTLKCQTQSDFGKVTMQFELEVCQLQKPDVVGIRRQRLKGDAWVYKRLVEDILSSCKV
Sequence of FGR (P09769 whole entry): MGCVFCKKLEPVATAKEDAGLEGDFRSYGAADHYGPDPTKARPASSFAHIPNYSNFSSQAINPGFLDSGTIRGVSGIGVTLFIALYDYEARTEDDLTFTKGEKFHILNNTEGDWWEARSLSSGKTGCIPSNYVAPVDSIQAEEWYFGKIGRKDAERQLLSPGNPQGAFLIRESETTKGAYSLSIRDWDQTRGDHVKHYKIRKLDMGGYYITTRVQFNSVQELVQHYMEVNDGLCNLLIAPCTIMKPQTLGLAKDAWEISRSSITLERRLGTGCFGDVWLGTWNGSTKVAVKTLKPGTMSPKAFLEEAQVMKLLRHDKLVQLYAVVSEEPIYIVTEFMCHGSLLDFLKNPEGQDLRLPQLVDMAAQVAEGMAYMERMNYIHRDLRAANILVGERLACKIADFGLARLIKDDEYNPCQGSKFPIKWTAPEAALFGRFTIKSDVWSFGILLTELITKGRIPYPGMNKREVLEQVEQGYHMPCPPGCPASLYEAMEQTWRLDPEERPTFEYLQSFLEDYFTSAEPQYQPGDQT

For the compound `CC#CC(=O)N1CC[C@@H](n2c(=O)n(-c3ccc(Oc4ccccc4)cc3)c3c(N)ncnc32)C1` [Tirabrutinib], the results for the remaining binding at 0.3 µM on BLK (setting [1]) and at MELK (setting [1]) were 39% and 82%, respectively.
Take `CC#CC(=O)N1CCC[C@H]1c1nc(-c2ccc(C(=O)Nc3ccccn3)cc2)c2c(N)nccn12` [Acalabrutinib]: the remaining binding at 0.3 µM is 80% at BLK (setting [2]); 78% on CDKL3 (setting [2]); 94% on FGR (setting [2]); 79% on LATS1 (setting [2]); 81% on MELK (setting [2]); 94% at MLCK (setting [2]).
For the compound `C=CC(=O)N1CCC[C@@H](n2nc(-c3ccc(Oc4ccccc4)cc3)c3c(N)ncnc32)C1` [Ibrutinib], the remaining binding at 0.3 µM at BLK (setting [3]) stood at 0.5%; at CDKL3 (setting [3]) it was 98%; at FGR (setting [3]) it was 8.6%; on LATS1 (setting [3]) it was 83%; on MELK (setting [3]) it was 74%; on MLCK (setting [3]) it was 79%.
In the case of `C=CC(=O)N1CCC([C@@H]2CCNc3c(C(N)=O)c(-c4ccc(Oc5ccccc5)cc4)nn32)CC1` [Zanubrutinib], the remaining binding at 0.3 µM turned out to be 92% on CDKL3 (setting [4]); 66% at FGR (setting [4]); 72% at LATS1 (setting [4]); 59% at MELK (setting [4]); 84% at MLCK (setting [4]).
